Data: patent publication US4048431A, “Alkylated derivatives of antibiotic BM123γ” (American Cyanamid Company, priority 1975, dated 1977)

Tested on: Escherichia coli US311
Assay: in vivo protection of mice against lethal Escherichia coli US311 infection (single subcutaneous dose)
Parameters: species or system Escherichia coli US311 in Carworth Farms CF-1 mice
Details: Carworth Farms CF-1 mice, about 20 gm., infected intraperitoneally with lethal dose of E. coli US311 (10^-3 TSP dilution of 5 hour TSP blood culture)
Protocol: These new substances show high in vivo antibacterial activity in mice against Escherichia coli US311 when administered by a single subcutaneous dose to groups of Carworth Farms CF-1 mice, weight about 20 gm., infected intraperitoneally with a lethal dose of this bacteria in a 10^- 3 trypticase soy broth TSP dilution of a 5 hour TSP blood culture. In Table VI below is set forth the in vivo activity of typical products of this invention (prepared from the indicated carbonyl reagents) against Escherichia coli US311 in mice. The activity is expressed in terms of the ED50 or the dose in mg./kg. of body weight required to protect 50% of the mice against E. coli.

Substance | ED50 (dose required to protect 50% of the mice against E. coli)
2-acetamido-1-methylpropyl-BM123γ | 0.50 mg./kg. of body weight
1-methyl-2-cyclohexylethyl-BM123γ | 0.18 mg./kg. of body weight
1-cyclopentylethyl-BM123γ | 0.18 mg./kg. of body weight
2-cyclohexenyl-BM123γ | 0.25 mg./kg. of body weight
1,3-dimethylpentyl-BM123γ | < 0.12 mg./kg. of body weight
5-methoxyl-2-tetralyl-BM123γ | 0.18 mg./kg. of body weight
1,4-dimethylpentyl-BM123γ | 0.12 mg./kg. of body weight
3-methylcyclopentyl-BM123γ | 0.25 mg./kg. of body weight
1,2,4-trimethylheptyl-BM123γ | 0.37 mg./kg. of body weight
1-methyloctyl-BM123γ | 0.37 mg./kg. of body weight
2-ethylidenecyclohexyl-BM123γ | 0.12 mg./kg. of body weight
1,3,3-trimethylbutyl-BM123γ | 0.18 mg./kg. of body weight
1-methyl-butyn(-2-)yl-BM123γ | < 2.0 mg./kg. of body weight
4-t-butylcyclohexyl-BM123γ | 0.12 mg./kg. of body weight
1-methyl-2-(3-methoxyphenyl)ethyl-BM123γ | 0.30 mg./kg. of body weight
2-cyclopentylcyclopentyl-BM123γ | 0.37 mg./kg. of body weight
1-methyl-2-o-[tolylcarbamoylethyl]-BM123γ | 0.25 mg./kg. of body weight
1-methyl-2-acetylethyl-BM123γ | 1.5 mg./kg. of body weight
1,3-dimethylbutyl-BM123γ | < 0.12 mg./kg. of body weight
trans-2-methyl-2-butenyl-BM123γ | 0.18 mg./kg. of body weight
cycloheptyl-BM123γ | 0.3 mg./kg. of body weight
3-quinuclidinyl-BM123γ | 0.39 mg./kg. of body weight

Substance | ED50 (dose required to protect 50% of the mice against E. coli)
1-methyl-2-methoxyethyl-BM123γ | 0.3 mg./kg. of body weight
1,3-dimethylhexyl-BM123γ | 0.5 mg./kg. of body weight
1,2-dimethylpentyl-BM123γ | 0.18 mg./kg. of body weight
2-(tert-butylcarbamoyl)-1-methyl-ethyl-BM123γ | 0.38 mg./kg. of body weight
1-methylhexyl-BM123γ | 0.38 mg./kg. of body weight
1-methyl-4-chlorobutyl-BM123γ | 0.37 mg./kg. of body weight
1-methyl-2-(4-chlorophenyl)ethyl-BM123γ | 0.25 mg./kg. of body weight
1-methyl-3-methoxypropen(-2-)yl-BM123γ | > 2.0 mg./kg. of body weight
1-[(dimethoxyphosphinyl)methyl]-hexyl-BM123γ | 0.3 mg./kg. of body weight
methyl-BM123γ | 0.12 mg./kg. of body weight
2,2-dimethylpropyl-BM123γ | 0.18 mg./kg. of body weight
(1-methylcyclo-3-hexenyl)methyl-BM123γ | 0.18 mg./kg. of body weight
2,2,4,4-tetramethylcyclopentyl-BM123γ | 0.75 mg./kg. of body weight
isopropyl-BM123γ | < 0.12 mg./kg. of body weight
1-methyl-2-phenylethyl-BM123γ | 0.18 mg./kg. of body weight
1,2,2-dimethylhydroxypropyl-BM123γ | 0.18 mg./kg. of body weight
1,2-dimethyl-3-hydroxypropyl-BM123γ | 0.12 mg./kg. of body weight
norbornyl-BM123γ | 0.18 mg./kg. of body weight
cyclooctyl-BM123γ | 0.18 mg./kg. of body weight
1-ethyl-3-chloropropyl-BM123γ | 0.12 mg./kg. of body weight
cyclononyl-BM123γ | 0.18 mg./kg. of body weight
cyclohexyl-BM123γ | 0.75 mg./kg. of body weight

Substance | ED50 (dose required to protect 50% of the mice against E. coli)
1,2-dimethylbutyl-BM123γ | 0.12 mg./kg. of body weight
2-ethylhexyl-BM123γ | 0.37 mg./kg. of body weight
1-ethylhexyl-BM123γ | 0.18 mg./kg. of body weight
1,2,3-trimethylpentyl-BM123γ | 0.39 mg./kg. of body weight
1-methyl-2-(3-chlorophenyl)ethyl-BM123γ | 0.38 mg./kg. of body weight
1-(carbethoxymethyl)butyl-BM123γ | 0.75 mg./kg. of body weight
1-ethyloctyl-BM123γ | 0.25 mg./kg. of body weight
1-methyl-3-(N,N-diethylamino)propyl-BM123γ | 0.18 mg./kg. of body weight
1-benzyl-4-piperidyl-BM123γ | 0.18 mg./kg. of body weight
1-isopropyl-4-methylpentyl-BM123γ | 0.39 mg./kg. of body weight
cyclopentyl-BM123γ | 0.25 mg./kg. of body weight
1-methyl-3-(4-hydroxyphenyl)ethyl-BM123γ | 0.3 mg./kg. of body weight
2-phenylcyclohexyl-BM123γ | 0.38 mg./kg. of body weight
3,3-dimethylcyclohexen(-4-)yl-BM123γ | 0.37 mg./kg. of body weight
1-ethylnonyl-BM123γ | 0.38 mg./kg. of body weight
1-methylnonyl-BM123γ | 0.18 mg./kg. of body weight
1-methyl-3,3-dimethoxypropyl-BM123γ | 0.75 mg./kg. of body weight
ethyl-BM123γ | 0.38 mg./kg. of body weight
1-ethylbutyl-BM123γ | 0.39 mg./kg. of body weight
4-tetrahydrothiopyranyl-BM123γ | 0.38 mg./kg. of body weight
2,4,4-trimethylcyclopentyl-BM123γ | 0.3 mg./kg. of body weight
1-methyl-2-carboethoxypropyl-BM123γ | 0.18 mg./kg. of body weight

Substance | ED50 (dose required to protect 50% of the mice against E. coli)
bicyclo[3.2.1]octanyl-2-BM123γ | < 0.25 mg./kg. of body weight
1-methyl-2-chloro-2-carbethoxyethyl-BM123γ | 1.5 mg./kg. of body weight
1-methyl-4-(N,N-diethylamino)butyl-BM123γ | 0.5 mg./kg. of body weight
2-cyclohexylcyclohexyl-BM123γ | 0.75 mg./kg. of body weight
2-methylcyclopentyl-BM123γ | 0.25 mg./kg. of body weight
2-ethylcyclopentyl-BM123γ | 0.12 mg./kg. of body weight
1-cyclopropylethyl-BM123γ | 0.25 mg./kg. of body weight
2-ethylcyclohexyl-BM123γ | 0.19 mg./kg. of body weight
1-propylbutyl-BM123γ | 0.25 mg./kg. of body weight
trans-2-methyl-2-pentenyl-BM123γ | 0.18 mg./kg. of body weight
1-methyl-2-hydroxypropyl-BM123γ | 0.37 mg./kg. of body weight
1,3,3-trimethylcyclopentyl-BM123γ | 0.37 mg./kg. of body weight
3-methyl-6-isopropylcyclohexyl-BM123γ | 0.38 mg./kg. of body weight
1-methylheptyl-BM123γ | 0.38 mg./kg. of body weight
1-methyl-2-(3-hydroxy-2-methylpropyl)-BM123γ | 0.18 mg./kg. of body weight
1,3-dimethylbuten(-2-)yl-BM123γ | 0.3 mg./kg. of body weight
1-methyl-2-(2-chlorophenyl)ethyl-BM123γ | 0.37 mg./kg. of body weight
1-methylbutyl-BM123γ | < 0.12 mg./kg. of body weight
1-methyl-2-phenoxyethyl-BM123γ | 0.3 mg./kg. of body weight
